Laboratory results as given in ChEMBL document CHEMBL5375983, “Discovery of YSR734: A Covalent HDAC Inhibitor with Cellular Activity in Acute Myeloid Leukemia and Duchenne Muscular Dystrophy” (J Med Chem, 2023).

Assays:
[1] = biological target: Histone deacetylase 3 (Homo sapiens, UniProt O15379); assay: Inhibition of full length recombinant human HDAC3 expressed in Sf9 cells using 6-carboxyfluorescein peptide as substrate preincubated with compound for 6 hrs followed by substrate addition and measured after 3 hrs by electrophoretic mobility shift assay; type: cell-based
Sequence of Histone deacetylase 3 (O15379 whole entry): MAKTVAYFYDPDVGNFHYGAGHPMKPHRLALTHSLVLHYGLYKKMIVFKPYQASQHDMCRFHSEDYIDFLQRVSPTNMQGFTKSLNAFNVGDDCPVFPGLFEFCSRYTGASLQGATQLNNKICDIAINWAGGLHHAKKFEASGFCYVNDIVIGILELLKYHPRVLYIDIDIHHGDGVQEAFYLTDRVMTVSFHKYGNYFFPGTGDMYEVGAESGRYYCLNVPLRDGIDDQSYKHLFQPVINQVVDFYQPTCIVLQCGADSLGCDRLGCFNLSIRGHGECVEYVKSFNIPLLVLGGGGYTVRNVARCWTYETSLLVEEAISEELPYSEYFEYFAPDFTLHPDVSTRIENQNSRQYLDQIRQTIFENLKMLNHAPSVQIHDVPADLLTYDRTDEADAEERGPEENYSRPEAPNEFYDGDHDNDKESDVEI

[2] = Glutathione reactivity assessed as compound consumption at 500 nM measured after 1 to 3 hrs by LC-MS/MS analysis; type: ADME; conditions: glutathione solution, time 1-3 hrs, read-out: Activity
[3] = tested on: MV4-11; assay: Induction of apoptosis in human MV4-11 cells assessed as healthy cells at 1 uM measured after 6 hrs by annexin V-FITC/PI staining based FACS assay (reference value: 63.50%); type: functional
[4] = biological target: Histone deacetylase 4 (Homo sapiens, UniProt P56524); assay: Inhibition of HDAC4 (unknown origin) using 6-carboxyfluorescein peptide as substrate preincubated with compound for 6 hrs followed by substrate addition by electrophoretic mobility shift assay
Sequence of Histone deacetylase 4 (P56524 whole entry): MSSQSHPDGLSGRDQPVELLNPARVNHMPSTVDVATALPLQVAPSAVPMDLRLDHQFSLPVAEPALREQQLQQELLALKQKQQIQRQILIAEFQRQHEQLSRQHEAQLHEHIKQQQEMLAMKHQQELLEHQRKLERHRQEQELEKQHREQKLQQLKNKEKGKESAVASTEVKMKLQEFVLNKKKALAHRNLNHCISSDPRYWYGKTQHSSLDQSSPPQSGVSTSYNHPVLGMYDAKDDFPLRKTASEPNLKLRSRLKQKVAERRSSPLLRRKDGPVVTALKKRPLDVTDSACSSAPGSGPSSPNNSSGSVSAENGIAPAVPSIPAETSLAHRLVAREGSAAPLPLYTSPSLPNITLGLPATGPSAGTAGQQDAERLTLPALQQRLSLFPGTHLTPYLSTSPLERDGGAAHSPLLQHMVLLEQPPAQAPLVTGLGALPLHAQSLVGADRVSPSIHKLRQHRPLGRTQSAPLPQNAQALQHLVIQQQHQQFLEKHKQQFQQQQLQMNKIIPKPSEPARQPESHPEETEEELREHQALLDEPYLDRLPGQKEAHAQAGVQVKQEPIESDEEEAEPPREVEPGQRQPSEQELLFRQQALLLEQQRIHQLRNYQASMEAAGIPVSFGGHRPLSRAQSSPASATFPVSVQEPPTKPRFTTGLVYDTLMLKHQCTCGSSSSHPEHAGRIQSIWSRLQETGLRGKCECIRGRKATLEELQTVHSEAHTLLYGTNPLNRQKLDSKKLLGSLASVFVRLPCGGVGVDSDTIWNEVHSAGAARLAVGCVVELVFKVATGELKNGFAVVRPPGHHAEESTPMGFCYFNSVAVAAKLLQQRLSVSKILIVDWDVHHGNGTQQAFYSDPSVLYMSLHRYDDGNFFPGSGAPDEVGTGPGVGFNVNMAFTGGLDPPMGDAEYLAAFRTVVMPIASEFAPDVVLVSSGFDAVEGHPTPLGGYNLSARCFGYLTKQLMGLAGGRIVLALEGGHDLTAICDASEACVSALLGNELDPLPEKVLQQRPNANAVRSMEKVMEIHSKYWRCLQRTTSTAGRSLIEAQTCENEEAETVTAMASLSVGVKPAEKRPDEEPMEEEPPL

[5] = biological target: T1, Histone deacetylase 11 (Homo sapiens, UniProt Q96DB2); assay: Inhibition of full length recombinant human HDAC11 expressed in Sf9 cells using 6-carboxyfluorescein peptide as substrate preincubated with compound for 6 hrs followed by substrate addition and measured after 17 hrs by electrophoretic mobility shift assay
T1 sequence (Q96DB2 whole entry): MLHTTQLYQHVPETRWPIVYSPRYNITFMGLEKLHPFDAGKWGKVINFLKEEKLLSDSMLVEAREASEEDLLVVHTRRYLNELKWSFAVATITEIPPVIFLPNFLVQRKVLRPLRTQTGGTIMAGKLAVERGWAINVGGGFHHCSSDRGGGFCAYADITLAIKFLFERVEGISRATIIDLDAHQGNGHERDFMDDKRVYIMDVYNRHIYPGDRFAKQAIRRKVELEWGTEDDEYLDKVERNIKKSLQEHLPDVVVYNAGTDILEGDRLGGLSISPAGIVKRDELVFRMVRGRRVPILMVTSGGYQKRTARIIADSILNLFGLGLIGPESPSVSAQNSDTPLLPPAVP

[6] = biological target: T2, Polyamine deacetylase HDAC10 (Homo sapiens, UniProt Q969S8); assay: Inhibition of HDAC10 (unknown origin) using 6-carboxyfluorescein peptide as substrate preincubated with compound for 6 hrs followed by substrate addition by electrophoretic mobility shift assay
T2 sequence (Q969S8 whole entry): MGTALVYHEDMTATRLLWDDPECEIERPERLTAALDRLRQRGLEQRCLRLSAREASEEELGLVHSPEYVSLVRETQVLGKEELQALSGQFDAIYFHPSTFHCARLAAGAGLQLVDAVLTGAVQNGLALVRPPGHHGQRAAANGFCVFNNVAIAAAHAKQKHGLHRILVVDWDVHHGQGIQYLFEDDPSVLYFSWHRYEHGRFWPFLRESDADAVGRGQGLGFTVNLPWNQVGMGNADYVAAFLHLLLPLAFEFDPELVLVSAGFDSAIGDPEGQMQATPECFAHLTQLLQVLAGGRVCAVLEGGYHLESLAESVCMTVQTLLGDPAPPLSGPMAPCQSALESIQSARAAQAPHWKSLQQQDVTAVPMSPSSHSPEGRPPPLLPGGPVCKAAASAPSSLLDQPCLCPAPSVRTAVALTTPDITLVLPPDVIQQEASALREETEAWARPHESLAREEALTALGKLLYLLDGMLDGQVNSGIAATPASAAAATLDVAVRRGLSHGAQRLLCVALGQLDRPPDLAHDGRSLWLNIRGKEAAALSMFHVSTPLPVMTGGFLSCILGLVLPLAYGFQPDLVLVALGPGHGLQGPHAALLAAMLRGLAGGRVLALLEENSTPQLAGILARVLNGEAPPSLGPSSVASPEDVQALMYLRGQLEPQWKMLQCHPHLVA

[7] = biological target: Histone deacetylase 2 (Homo sapiens, UniProt Q92769); assay: Inhibition of HDAC2 (unknown origin) using 6-carboxyfluorescein peptide as substrate preincubated with compound for 6 hrs followed by substrate addition by electrophoretic mobility shift assay
Sequence of Histone deacetylase 2 (Q92769 whole entry): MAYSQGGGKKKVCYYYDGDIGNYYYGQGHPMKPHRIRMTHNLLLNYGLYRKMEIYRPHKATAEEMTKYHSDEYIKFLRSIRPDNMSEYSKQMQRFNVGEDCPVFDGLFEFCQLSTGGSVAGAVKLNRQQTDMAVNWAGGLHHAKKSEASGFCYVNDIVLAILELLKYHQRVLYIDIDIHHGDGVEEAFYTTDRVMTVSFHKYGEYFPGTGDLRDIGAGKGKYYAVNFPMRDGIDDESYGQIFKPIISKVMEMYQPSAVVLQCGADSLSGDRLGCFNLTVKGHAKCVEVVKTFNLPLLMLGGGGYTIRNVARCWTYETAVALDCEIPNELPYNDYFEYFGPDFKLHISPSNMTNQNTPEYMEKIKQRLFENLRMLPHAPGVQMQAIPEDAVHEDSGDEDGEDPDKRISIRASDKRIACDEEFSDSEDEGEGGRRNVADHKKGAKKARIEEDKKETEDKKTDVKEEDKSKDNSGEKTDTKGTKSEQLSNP

[8] = biological target: T3, Histone deacetylase 7 (Homo sapiens, UniProt Q8WUI4); assay: Inhibition of HDAC7 (unknown origin) using 6-carboxyfluorescein peptide as substrate preincubated with compound for 6 hrs followed by substrate addition by electrophoretic mobility shift assay
T3 sequence (Q8WUI4 whole entry): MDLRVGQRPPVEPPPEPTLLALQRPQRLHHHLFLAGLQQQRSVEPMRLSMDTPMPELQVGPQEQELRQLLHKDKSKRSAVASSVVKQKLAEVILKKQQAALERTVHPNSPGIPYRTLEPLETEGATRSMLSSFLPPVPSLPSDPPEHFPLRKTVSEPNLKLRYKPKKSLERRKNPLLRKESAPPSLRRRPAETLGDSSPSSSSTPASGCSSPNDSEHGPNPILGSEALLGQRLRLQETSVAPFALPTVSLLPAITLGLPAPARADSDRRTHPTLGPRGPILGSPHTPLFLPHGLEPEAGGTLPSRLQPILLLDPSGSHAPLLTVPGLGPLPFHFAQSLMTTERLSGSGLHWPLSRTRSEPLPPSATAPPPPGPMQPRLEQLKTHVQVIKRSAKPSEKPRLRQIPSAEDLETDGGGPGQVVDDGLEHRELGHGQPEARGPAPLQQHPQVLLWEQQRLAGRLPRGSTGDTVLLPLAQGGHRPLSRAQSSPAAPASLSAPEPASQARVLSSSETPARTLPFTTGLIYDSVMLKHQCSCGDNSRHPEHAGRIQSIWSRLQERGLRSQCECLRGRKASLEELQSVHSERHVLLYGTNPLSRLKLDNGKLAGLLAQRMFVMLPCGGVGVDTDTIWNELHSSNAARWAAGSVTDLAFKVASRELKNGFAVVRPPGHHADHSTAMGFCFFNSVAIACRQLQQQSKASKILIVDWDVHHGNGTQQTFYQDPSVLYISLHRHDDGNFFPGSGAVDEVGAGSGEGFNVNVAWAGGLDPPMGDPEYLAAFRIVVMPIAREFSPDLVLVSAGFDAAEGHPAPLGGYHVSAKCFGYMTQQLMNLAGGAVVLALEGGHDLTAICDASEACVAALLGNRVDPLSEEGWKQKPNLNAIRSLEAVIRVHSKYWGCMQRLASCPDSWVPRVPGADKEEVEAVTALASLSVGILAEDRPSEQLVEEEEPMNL

- IC50 [1]: 0.143 µM
- degraded at 0.5 µM [2]: > 50%
- IC50 [4]: > 10 µM
- IC50 [5]: > 2 µM
- IC50 [6]: > 10 µM
- IC50 [7]: 0.154 µM
- IC50 [8]: > 10 µM
Compound: Nc1ccccc1NC(=O)c1ccc(CNC(=O)OC2CCN(S(=O)(=O)c3c(F)c(F)c(F)c(F)c3F)CC2)cc1
- Activity [3]: 23.54%
